The target in series [1] is T1, Tyrosine-protein phosphatase non-receptor type 1 (Homo sapiens, UniProt P18031).
T1 sequence (P18031 whole entry): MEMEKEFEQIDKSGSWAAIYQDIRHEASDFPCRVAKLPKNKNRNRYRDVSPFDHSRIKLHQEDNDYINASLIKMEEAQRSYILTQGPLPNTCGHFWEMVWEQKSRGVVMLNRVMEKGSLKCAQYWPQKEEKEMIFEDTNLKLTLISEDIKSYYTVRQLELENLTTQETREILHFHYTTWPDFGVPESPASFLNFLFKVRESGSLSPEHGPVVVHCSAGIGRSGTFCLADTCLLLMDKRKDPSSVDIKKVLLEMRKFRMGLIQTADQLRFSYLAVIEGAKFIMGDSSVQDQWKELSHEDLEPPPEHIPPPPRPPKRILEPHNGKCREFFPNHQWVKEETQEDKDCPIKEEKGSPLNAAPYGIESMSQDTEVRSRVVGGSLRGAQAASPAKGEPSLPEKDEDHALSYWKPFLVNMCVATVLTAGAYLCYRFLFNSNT

Series [2] deals with T2, Tyrosine-protein phosphatase non-receptor type 11 (Homo sapiens, UniProt Q06124).
T2 sequence (Q06124 whole entry): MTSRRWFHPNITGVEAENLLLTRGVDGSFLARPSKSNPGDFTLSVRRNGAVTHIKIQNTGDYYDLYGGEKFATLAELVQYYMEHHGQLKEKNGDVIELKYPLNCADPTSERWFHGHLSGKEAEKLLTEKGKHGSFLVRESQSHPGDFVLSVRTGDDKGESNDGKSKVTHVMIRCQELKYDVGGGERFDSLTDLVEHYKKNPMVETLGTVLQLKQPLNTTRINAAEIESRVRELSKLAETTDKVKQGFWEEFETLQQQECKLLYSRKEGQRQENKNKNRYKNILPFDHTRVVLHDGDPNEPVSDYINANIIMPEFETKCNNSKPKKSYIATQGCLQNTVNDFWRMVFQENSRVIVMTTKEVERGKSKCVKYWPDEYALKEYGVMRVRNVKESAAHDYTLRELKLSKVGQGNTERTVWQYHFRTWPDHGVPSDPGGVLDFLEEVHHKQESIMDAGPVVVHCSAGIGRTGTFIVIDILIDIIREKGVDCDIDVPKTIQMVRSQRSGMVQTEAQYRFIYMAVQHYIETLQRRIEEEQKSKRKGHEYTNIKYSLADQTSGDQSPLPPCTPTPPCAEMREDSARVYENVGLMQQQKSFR

In series [3] the target is Tyrosine-protein phosphatase non-receptor type 6 (Homo sapiens, UniProt P29350).
Chain of Tyrosine-protein phosphatase non-receptor type 6 (P29350 whole entry): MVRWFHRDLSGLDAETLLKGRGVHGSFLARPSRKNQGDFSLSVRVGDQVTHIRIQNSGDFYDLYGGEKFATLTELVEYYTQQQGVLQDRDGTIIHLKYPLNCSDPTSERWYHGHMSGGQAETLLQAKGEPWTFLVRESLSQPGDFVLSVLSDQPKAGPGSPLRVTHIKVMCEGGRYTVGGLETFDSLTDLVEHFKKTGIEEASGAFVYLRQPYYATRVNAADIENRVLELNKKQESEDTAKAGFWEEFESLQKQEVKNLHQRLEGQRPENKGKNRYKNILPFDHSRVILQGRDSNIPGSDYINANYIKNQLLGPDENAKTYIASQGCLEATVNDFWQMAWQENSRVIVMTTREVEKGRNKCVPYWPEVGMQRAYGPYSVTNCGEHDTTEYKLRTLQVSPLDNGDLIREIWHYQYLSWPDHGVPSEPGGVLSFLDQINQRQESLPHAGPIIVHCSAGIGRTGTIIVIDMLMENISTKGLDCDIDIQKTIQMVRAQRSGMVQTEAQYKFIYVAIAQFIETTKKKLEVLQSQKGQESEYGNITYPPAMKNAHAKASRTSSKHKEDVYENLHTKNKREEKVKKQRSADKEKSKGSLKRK
In series [4] the target is T3, Phosphotyrosine protein phosphatase (Mycobacterium tuberculosis, UniProt A0A045ISB3).
T3 sequence (A0A045ISB3 whole entry): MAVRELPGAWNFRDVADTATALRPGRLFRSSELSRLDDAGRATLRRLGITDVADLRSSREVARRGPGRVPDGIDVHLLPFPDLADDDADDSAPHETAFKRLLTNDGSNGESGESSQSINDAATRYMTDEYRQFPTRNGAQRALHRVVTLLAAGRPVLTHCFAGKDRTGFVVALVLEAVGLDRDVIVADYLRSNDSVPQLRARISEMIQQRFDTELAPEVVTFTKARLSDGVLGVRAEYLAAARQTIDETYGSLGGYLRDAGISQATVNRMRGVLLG
Description: Inhibition of Mycobacterium tuberculosis PTPB expressed in Escherichia coli BL21 (DE3) using p-nitrophenyl phosphate as substrate measured after 30 mins by UV-vis spectrophotometric method

Series [5] is described as follows: Drug uptake in mouse RAW264.7 cells at 20 uM measured after 2 hrs by LC-MS analysis. The series is classed as ADME, cell-based. To be noted: raw264.7, 2 h.
The target of series [6] is Receptor-type tyrosine-protein phosphatase epsilon (Homo sapiens, UniProt P23469).
Chain of Receptor-type tyrosine-protein phosphatase epsilon (P23469 whole entry): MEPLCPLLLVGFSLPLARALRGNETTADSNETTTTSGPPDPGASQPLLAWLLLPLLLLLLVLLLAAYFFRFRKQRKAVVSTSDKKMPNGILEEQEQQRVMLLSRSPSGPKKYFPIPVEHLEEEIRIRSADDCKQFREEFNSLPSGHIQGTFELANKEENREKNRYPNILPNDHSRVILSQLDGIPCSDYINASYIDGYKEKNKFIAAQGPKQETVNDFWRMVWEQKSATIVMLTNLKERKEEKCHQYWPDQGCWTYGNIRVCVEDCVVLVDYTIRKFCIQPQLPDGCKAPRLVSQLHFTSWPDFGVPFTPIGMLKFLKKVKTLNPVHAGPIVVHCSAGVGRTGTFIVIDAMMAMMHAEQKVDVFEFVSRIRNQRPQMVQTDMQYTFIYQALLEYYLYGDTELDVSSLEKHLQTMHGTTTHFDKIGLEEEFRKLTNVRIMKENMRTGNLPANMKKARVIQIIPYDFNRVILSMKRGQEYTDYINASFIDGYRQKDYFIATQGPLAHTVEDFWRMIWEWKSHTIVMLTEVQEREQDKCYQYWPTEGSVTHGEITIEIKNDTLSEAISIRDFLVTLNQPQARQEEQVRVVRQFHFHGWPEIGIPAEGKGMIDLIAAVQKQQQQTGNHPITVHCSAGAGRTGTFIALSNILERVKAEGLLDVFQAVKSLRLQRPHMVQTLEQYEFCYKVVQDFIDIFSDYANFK
The nature of series [7]: Stability in CD1 mouse pooled liver microsomes measured after 2 hrs in absence of NADPH by LC-MS/MS analysis. It is filed as ADME, Microsome.
In series [8] the test system is MEF. Kind of series: Cytotoxicity against MEF at 25 uM measured after 72 hrs by MTT assay. It is filed as cell-based. To be noted: mouse.
For series [9], the target named is T4, Phosphotyrosine protein phosphatase (Mycobacterium tuberculosis) (UniProt A0A045ISB3).
T4 sequence (whole entry): T3 sequence (A0A045ISB3 whole entry)
Description: Time-dependent inhibition of Mycobacterium tuberculosis PTPB expressed in Escherichia coli BL21 (DE3) using p-nitrophenyl phosphate as substrate in presence of Triton-X-100 by UV-vis spectrophotometric method

Series [10] concerns the target T4, Phosphotyrosine protein phosphatase (Mycobacterium tuberculosis). The source holds these as a separate data set.
Description: Time-dependent inhibition of Mycobacterium tuberculosis PTPB expressed in Escherichia coli BL21 (DE3) using p-nitrophenyl phosphate as substrate in absence of Triton-X-100 by UV-vis spectrophotometric method

Structures are written as SMILES. Activity calls are given as the source filed them. The rule behind the calls is not given here.

Regarding `CC(C)(C)OC(=O)NCC#Cc1ccc(NC(=O)C(=O)O)cc1`, the IC50 in series [1] was more than 100 µM.

As for `CC(C)(C)c1ccc(C#Cc2ccc(NC(=O)C(=O)O)cc2)cc1`, the IC50 in series [1] was more than 50 µM; in [2] it was more than 50 µM; in series [3], more than 50 µM; in series [4] it was 0.026 µM.

Regarding `NS(=O)(=O)c1ccc(C#Cc2ccc(NC(=O)C(=O)O)cc2)cc1`, the IC50 in series [1] and in series [2] was more than 50 µM in each case.

Consider `C#Cc1ccc(NC(=O)C(=O)O)cc1`, for which the IC50 in [1] and in series [2] was more than 100 µM each time.

`CN(C)c1cc(O)c(C(=O)O)cc1C#Cc1cccc(NC(=O)C(=O)O)c1` registered an IC50 in [4] of 0.16 µM.

On to `O=C(O)C(=O)Nc1ccc(C#Cc2ccccc2)cc1`, for which the IC50 is more than 100 µM in [1], more than 100 µM in series [2], more than 100 µM in series [3] and 0.257 µM in series [4].

As for `COC(=O)c1ccc(C#Cc2ccc(NC(=O)C(=O)O)cc2)cc1O`, the IC50 in series [1], in [2] and in series [3] was more than 50 µM in each case.

As for `O=C(O)C(=O)Nc1ccc(/C=C\c2ccc(C(F)(F)F)cc2)cc1`, the IC50 in [1] is more than 30 µM; in series [2] it was more than 30 µM; in series [4], 0.684 µM.

For the compound `O=C(O)C(=O)Nc1ccc(CCc2ccccc2)cc1`, the IC50 was more than 30 µM in series [1], more than 30 µM in [2] and 1.27 µM in series [4].

For the compound `O=C(O)C(=O)Nc1cnc2ccccc2c1`, in series [4], the IC50 is more than 10 µM.

`COC(=O)c1cc(C#Cc2cccc(NC(=O)C(=O)O)c2)c(N(C)C)cc1O`: the IC50 in [1], in series [2] and in series [3] was more than 50 µM in each case.

With `O=C(O)C(=O)Nc1ccc(C#Cc2ccc(O)c(Br)c2)cc1`, the IC50 in series [1] and in [3] was more than 50 µM throughout.

As to `O=C(O)C(=O)Nc1ccc(CCc2ccc(C(F)(F)F)cc2)cc1`, the values for the IC50 in [1], in [2] and in series [4] were more than 30 µM, more than 30 µM and 0.197 µM, respectively.

Regarding `O=C(O)C(=O)Nc1ccccc1`, the IC50 in series [1] and in [2] was more than 100 µM throughout.

As for `O=C(O)C(=O)Nc1ccc(/C=C\c2ccccc2)cc1`, the IC50 was more than 30 µM in series [1], more than 30 µM in series [2] and 0.77 µM in series [4].

Consider `O=C(O)C(=O)Nc1ccc(C#Cc2ccc(OC(F)(F)F)cc2)cc1`, for which the IC50 in [1], in [2] and in series [3] was more than 50 µM throughout.

Turning to `COC(=O)c1cc(C#Cc2ccc(NC(=O)C(=O)O)cc2)c(N(C)C)cc1O`, the half-inhibitory concentration (IC50) was more than 50 µM in [1], more than 50 µM in series [2], more than 50 µM in [3] and 0.03 µM in [4].

With `COC(=O)c1cc(C#Cc2ccc(NC(=O)C(=O)O)cc2)ccc1O`, the IC50 in series [1] was more than 50 µM; in [3] it was more than 50 µM; in series [4], 0.025 µM.

Take `O=C(O)C(=O)Nc1ccc(C#Cc2ccc(C(F)(F)F)cc2)cc1`: the Drug uptake entry in series [5] is “Active”. The half-inhibitory concentration (IC50) in series [1] was more than 50 µM; in series [2], more than 50 µM; in series [3], more than 50 µM; in series [6], more than 30 µM. Moreover, the Stability entry in series [7] was “Stable”.

For `CN(C)c1cc(O)c(C(=O)O)cc1C#Cc1ccc(NC(=O)C(=O)O)cc1`, the IC50 in [1] is more than 100 µM; in [4] it was 0.09 µM.

Regarding `O=C(O)C(=O)Nc1ccc(C#Cc2ccc3ccccc3c2)cc1`, the IC50 in series [1], in [2] and in [3] was more than 50 µM throughout.

For the compound `O=C(O)C(=O)Nc1ccc(C#Cc2ccc(C(F)(F)F)cc2Cl)cc1`, the Drug uptake result in [5] is “Active”. Further, the IC50 in series [1], in [2] and in series [3] was more than 30 µM throughout. Also, the Stability result in series [7] is recorded as “Stable”. The Activity entry in series [8] is reported as “Non-Toxic”.

As to `O=C(O)C(=O)Nc1ccc(C#Cc2ccc(C(F)(F)F)cc2C(F)(F)F)cc1`, the IC50 in series [1], in series [2] and in [3] was more than 30 µM in each case.

As to `O=C(O)C(=O)Nc1cccc(C#Cc2ccccc2)c1`, in series [1], the IC50 is more than 100 µM.

Turning to `O=C(O)C(=O)Nc1ccc(C#Cc2ccc(C(F)(F)F)cc2Br)cc1`, in series [5], the Drug uptake entry is reported as “Active”. Besides, the Stability result in series [7] was “Stable”.

Take `O=C(O)C(=O)Nc1ccc(C#Cc2ccc(O)cc2)cc1`: the IC50 in [1], in series [2] and in series [3] was more than 50 µM throughout.

With `O=C(O)C(=O)Nc1ccc(C#Cc2cc(C(F)(F)F)cc(C(F)(F)F)c2)cc1`, the IC50 in series [1] was more than 50 µM; in series [2], more than 50 µM; in series [3] it was more than 50 µM; in series [4], 0.06 µM. For the same compound, the TDI entry in [9] and in series [10] was “Active” in each case.

In the case of `CC(C)(C)OC(=O)Nc1ccc(C#Cc2ccc(NC(=O)C(=O)O)cc2)cc1`, the IC50 in [1], in series [2] and in [3] was more than 50 µM each time. Moreover, the Activity result in [8] is given as “Non-Toxic”.

On to `O=C(O)C(=O)Nc1ccc(C#Cc2cccc(C(F)(F)F)c2)cc1`, for which the IC50 in series [2] and in [3] was more than 50 µM each time.

For `O=C(O)C(=O)Nc1ccc(C#Cc2ccc(C(F)(F)F)cc2F)cc1`, the Drug uptake entry in series [5] was “Active”. Also, the IC50 in series [1], in [2] and in series [3] was more than 30 µM in each case. Also, the Stability entry in series [7] was “Stable”.

Regarding `N#Cc1ccc(C#Cc2ccc(NC(=O)C(=O)O)cc2)cc1`, the IC50 in [1], in series [2] and in series [3] was more than 50 µM in each case.

The term IC50 denotes the concentration at which inhibition is half-maximal. Read a low IC50 as inhibition by little substance.

For the origin of these results see ChEMBL document CHEMBL4622975 (J Med Chem, 2020).
